The values that follow come from patent US8188273B2, “Insecticidal (1,3,5)-triazinyl phenyl hydrazones” (Dow AgroSciences, LLC., priority 2007, dated 2012).

Like-named read-outs stand apart in the source and are kept apart here.

The test system of test [1] is corn earworm (Helicoverpa zea). Put plainly: Insecticidal test on treated lepidopteran diet, corn earworm. It is filed as in vivo. To be noted: 120 h, read-out: AVG HELIZE 50 (percent control, corn ear worm). Here is the method:
(§1) The compounds identified in Table 1 were prepared according to the previous methods and were tested against beet armyworm and corn earworm as follows:
(§2) Insecticidal Test for Corn Earworm (Helicoverpa zea) and Beet Armyworm (Spodoptera exigua).
(§3) To prepare test solution, the test compound was formulated at 2000 ppm solution as 4 mg/2 mL of 9 acetone:1 tap water. 50 μL of the 2000 ppm (equivalent to 50 μg/cm^2 dose on diet surface area) test solution was pipetted upon the surface of 1 mL of lepidopteran diet (Southland Multi-Species Lepidopteran Diet) contained in each of eight wells per insect species (one well=1 replication). A second-instar corn earworm and beet armyworm was placed upon the treated diet in each well once the solvent had air-dried. Trays containing the treated diet and larvae were covered and then held in a growth chamber at 25° C., 50-55% RH, and 16 hr light:8 hr dark for 5 days. Observation were conducted 5 days after treatment and infestation. The number of dead insects of 8 per species per treatment was then determined and the results are given in Table 1 as a percent control at a dose of […].
(§4) Keys to the table: Mass spectral data were obtained using liquid chromatography mass spectroscopy (LC-MS). The masses are detected using electrospray ionization (ESI) and reported as Mol Ion (M+H, M−H); AVG LAPHEG 50 refers to activity against beet army worm (Spodoptera exigua) as defined above; AVG HELIZE 50 refers to activity against corn ear worm (Helicoverpa zea) as described above.

The test system of test [2] is beet armyworm (Spodoptera exigua). The test can be described thus: Insecticidal test on treated lepidopteran diet, beet armyworm. It is filed as in vivo. Conditions: 120 h, read-out: AVG LAPHEG 50 (percent control, beet army worm). Here is the method: as §1, §2, §3, §4
Where [3] appears, read: second-instar larvae on treated diet, 8 wells, dose of 50 mg/cm^2 [sic] (2000 ppm, 50 μL), dead insects counted 5 days after treatment.

As for `FC(F)(F)Oc1ccc(Nc2nc(N/N=C/c3cccc(Cl)c3)nc(N3CCOCC3)n2)cc1` [Compound 37], the pest or weed control at 2000 µg/mL in test [1] (setting [3]) came to 100%; in test [2] (setting [3]), 75%.
On to `N#Cc1ccc(/C=N/Nc2nc(NCc3ccc(Cl)nc3)nc(Nc3ccc(OC(F)(F)C(F)F)cc3)n2)cc1` [Compound 96], for which the pest or weed control at 2000 µg/mL in test [1] (setting [3]) and in test [2] (setting [3]) was 100% throughout.
As to `CCOc1nc(N/N=C/c2ccc(OC(F)(F)F)cc2)nc(Nc2cccc(C(F)(F)F)c2)n1` [Compound 12], the pest or weed control at 2000 µg/mL in test [1] (setting [3]) and in test [2] (setting [3]) was 100% each time.
As for `FC(F)(F)Oc1ccc(/C=N/Nc2nc(NCCN3CCOCC3)nc(Nc3cccc(C(F)(F)F)c3)n2)cc1` [Compound 50], the pest or weed control at 2000 µg/mL in test [1] (setting [3]) and in test [2] (setting [3]) was 100% each time.
Turning to `CCOC(=O)CNc1nc(N/N=C/c2ccc(OC(F)(F)F)cc2)nc(Nc2ccc(OC(F)(F)F)cc2)n1` [Compound 26], the pest or weed control at 2000 µg/mL amounted to 100% in test [1] (setting [3]) and 50% in test [2] (setting [3]).
For `Fc1cc(/C=N/Nc2nc(Nc3ccc(OC(F)(F)F)cc3)nc(N3CCOCC3)n2)ccc1Cl` [Compound 42], in that order: 100% and 88%.
The matching figures for `Fc1ccc(Nc2nc(NCc3ccncc3)nc(N/N=C/c3ccc(OC(F)(F)F)cc3)n2)cc1C(F)(F)F` [Compound 64]: 100% and 100%.
For `FC(F)(F)COc1nc(N/N=C/c2cccc(Br)c2)nc(Nc2ccc(OC(F)(F)F)cc2)n1` [Compound 29], in that order: 100% and 100%.
In the case of `Fc1cc(/C=N/Nc2nc(Nc3ccc(OC(F)(F)F)cc3)nc(OCC(F)(F)F)n2)ccc1Cl` [Compound 33], the pest or weed control at 2000 µg/mL in test [1] (setting [3]) and in test [2] (setting [3]) was 100% each time.
On to `Fc1ccc(Nc2nc(NCc3ccc(Cl)nc3)nc(N/N=C/c3cc(Cl)cc(Cl)c3)n2)cc1C(F)(F)F` [Compound 67], for which the pest or weed control at 2000 µg/mL in test [1] (setting [3]) and in test [2] (setting [3]) was 100% throughout.
For the molecule `CCNc1nc(N/N=C/c2ccc(OC(F)(F)F)cc2)nc(Nc2ccc(OC(F)(F)F)cc2)n1` [Compound 16], the pest or weed control at 2000 µg/mL in test [1] (setting [3]) was 0%; in test [2] (setting [3]), 13%.
For `COCCNc1nc(N/N=C/c2ccc(OC(F)(F)F)cc2)nc(Nc2cccc(C(F)(F)F)c2)n1` [Compound 19], the pest or weed control at 2000 µg/mL in test [1] (setting [3]) was determined as 75%; in test [2] (setting [3]) it was 100%.
Consider `FC(F)C(F)(F)Oc1cccc(Nc2nc(NCc3ccc(Cl)nc3)nc(N/N=C/c3ccc(C(F)(F)F)cc3)n2)c1` [Compound 85], for which the pest or weed control at 2000 µg/mL in test [1] (setting [3]) and in test [2] (setting [3]) was 100% throughout.
Consider `FC(F)(F)Oc1ccc(/C=N/Nc2nc(NCCN3CCOCC3)nc(Nc3ccc(OC(F)(F)F)cc3)n2)cc1` [Compound 21], for which the pest or weed control at 2000 µg/mL in test [1] (setting [3]) and in test [2] (setting [3]) was 100% each time.
On to `Fc1ccccc1/C=N/Nc1nc(Nc2ccc(OC(F)(F)F)cc2)nc(OCC(F)(F)F)n1` [Compound 31], for which the pest or weed control at 2000 µg/mL in test [1] (setting [3]) and in test [2] (setting [3]) was 100% each time.
As for `COCCNc1nc(N/N=C/c2ccc(OC(F)(F)F)cc2)nc(Nc2ccc(OC(F)(F)F)cc2)n1` [Compound 15], the figures for the pest or weed control at 2000 µg/mL in test [1] (setting [3]) and in test [2] (setting [3]) were 88% and 100%, respectively.
The matching figures for `Fc1ccc(Nc2ncnc(N/N=C/c3ccc(OC(F)(F)C(F)F)cc3)n2)cc1C(F)(F)F` [Compound 97]: 100% and 100%.
Consider `FC(F)C(F)(F)Oc1cccc(Nc2nc(N/N=C/c3ccc(C(F)(F)F)cc3)nc(N3CCOCC3)n2)c1` [Compound 84], for which the results for the pest or weed control at 2000 µg/mL in test [1] (setting [3]) and in test [2] (setting [3]) were 75% and 25%, respectively.
In the case of `FC(F)(F)Oc1ccc(/C=N/Nc2nc(Nc3ccc(OC(F)(F)F)cc3)nc(N3CCOCC3)n2)cc1` [Compound 4], the pest or weed control at 2000 µg/mL in test [1] (setting [3]) and in test [2] (setting [3]) was 100% each time.
With `FCCOc1ccc(/C=N/Nc2nc(NCc3ccc(Cl)nc3)nc(Nc3ccc(F)c(C(F)(F)F)c3)n2)cc1` [Compound 95], the pest or weed control at 2000 µg/mL in test [1] was 38%; in test [2], 75%.
For `FC(F)(F)Oc1ccc(Nc2nc(N/N=C/c3ccccc3C(F)(F)F)nc(N3CCOCC3)n2)cc1` [Compound 41], the pest or weed control at 2000 µg/mL in test [1] (setting [3]) stood at 0%; in test [2] (setting [3]), 13%.
The matching figures for `CCOc1nc(N/N=C/c2ccc(OC(F)(F)F)cc2)nc(Nc2ccc(OC(F)(F)F)cc2)n1` [Compound 8]: 25% and 25%.
Take `FC(F)(F)COc1nc(N/N=C/c2ccccc2OC(F)(F)F)nc(Nc2ccc(OC(F)(F)F)cc2)n1` [Compound 36]: the pest or weed control at 2000 µg/mL in test [1] (setting [3]) and in test [2] (setting [3]) was 100% throughout.
Take `Fc1ccc(Nc2nc(NCc3ccc(Cl)nc3)nc(N/N=C/c3cccc(OC(F)(F)C(F)F)c3)n2)cc1C(F)(F)F` [Compound 51]: the pest or weed control at 2000 µg/mL in test [1] (setting [3]) and in test [2] (setting [3]) was 100% throughout.
